For one molecule, Km results are on record in doi:10.64898/2025.12.11.693838v1 (biorxiv, 2025).

In general, Km refers to the substrate concentration at which the rate is half of its maximum.

In the assay the target is T1, SaTpx (WT-SaTpx) (Staphylococcus aureus, UniProt Q2FXL3).
T1 sequence (Q2FXL3 1-164): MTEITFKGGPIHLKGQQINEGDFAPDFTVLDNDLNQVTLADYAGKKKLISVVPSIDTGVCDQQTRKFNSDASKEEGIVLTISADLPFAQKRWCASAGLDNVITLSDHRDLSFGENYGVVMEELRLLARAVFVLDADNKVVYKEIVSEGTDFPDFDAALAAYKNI
Description: coupled SaTrx1/SaTR NADPH oxidation assay at […] nm, Michaelis-Menten fit. It counts as biochemical. As to conditions: apparent; NADPH 0.2 mM; 20 mM Tris, 50 mM NaCl, pH 8.0.

Consider `CC(C)(OO)c1ccccc1` [cumene hydroperoxide], for which the Michaelis-Menten constant (Km) was 8.5 µM.
